Data on one compound can be found in patent US20250255845A1, “USE OF INTERLEUKIN (IL)-17A INHIBITOR IN PREPARATION OF MEDICAMENT FOR TREATING INFLAMMATORY DISEASE” (Xiangnan University, priority 2024, published 2025).

The structures appear in SMILES notation.

One experiment relates to NO. Briefly: Griess assay of LPS-induced NO production in RAW264.7 cells. The experiment is classed as cell-based, mouse. As for the experimental part:
(§1) RAW264.7 cell culture: mouse mononuclear macrophages (RAW264.7, ATCC) are cultured in a complete medium containing 10% fetal bovine serum (FBS), 1% double antibodies (penicillin and streptomycin), and 89% DMEM at 37° C. and 5% CO2. In this experiment, RAW264.7 cells from passages 3 to 8 are used for related test.
(§2) LPS (100 ng/ml) is added for stimulation, with or without Tan, and the cell supernatant is collected to detect the contents of NO, IL-23, IL-17A, TNF-α, and IL-6 in the cell supernatant. The cell lysate is collected and the protein expressions (STAT3, p-STAT3 (Ser727), and p-STAT3 (Tyr705)) are detected by Western blot. Total cell RNA is extracted and real-time fluorescence quantitative polymerase chain reaction (PCR) is conducted to detect the expression levels of IL-23, IL-17A, TNF-α, and IL-6 mRNA.
RAW264.7 cells in the logarithmic growth phase were inoculated into a 48-well plate and the cell density was adjusted to 1.0×10^5 cells/well. After cultured for 24 h, the cells were stably adhered to the plate. The original medium was removed and different concentrations (5, 10, 20, 40 μM) of Tan were added to allow pretreatment for 1 h. […] OD540 nm value of the cell supernatant was detected according to the instructions of a Griess kit, and the NO content in the cell supernatant was calculated.

For another experiment, the system named is IL-23 mRNA. Briefly: Real-time fluorescence quantitative PCR, LPS-induced IL-23 mRNA in RAW264.7 cells. The experiment is classed as cell-based, mouse. As for the experimental part: as §1, §2
RAW264.7 cells were inoculated into 6-well plate and the cell density was adjusted to 5.0×10^6 cells/well. […] The fluorescence intensity of each sample was detected according to the instructions of the real-time fluorescence quantitative PCR kit and specific primers (Table 1) (cycle conditions: enzyme activation 95° C. for 3 min, 1 cycle; denaturation 95° C. for 15 s, annealing/extension 60° C. for 1 min, 40 cycles). The mRNA expression level of each group was normalized with the GAPDH expression level, and the relative expression of mRNA was calculated using the 2^−ΔΔCt method.

The test system of the next experiment is PCNA. Briefly: Immunohistochemistry of PCNA in dorsal skin of IMQ-induced psoriasis mice. As to conditions: preventive and therapeutic administration groups; dose-dependent. The experiment is classed as in vivo, Balb/c mice. As for the experimental part:
Balb/c mice (female, 6-8 weeks, 20+2 g), with certificate number [SCXK (Xiang) 2021-0002], were purchased from Hunan SJA Laboratory Animal (Changsha, China). All mice were housed in an specific pathogen free (SPF)-grade animal room with a 12 h light/12 h dark cycle, and experiments were started after the mice were acclimated for one week. Next, 96 mice were randomly divided into 12 groups (8 mice/group), including Control group, Control solvent (white vaseline) group, IMQ group, IMQ solvent (white vaseline) group, preventive administration of positive medicament Clo group (IMQ+Clo 55 mg), therapeutic administration of positive medicament group (IMQ+Clo (A) 55 mg), preventive administration of Tan low-dose group (IMQ+Tan 40 μg/cm^2), medium-dose group (IMQ+Tan160 μg/cm^2), and high-dose group (IMQ+Tan 640 μg/cm^2), and therapeutic administration of Tan low-dose group (IMQ+Tan (A) 40 μg/cm^2), medium-dose group (IMQ+Tan (A) 160 μg/cm^2), and high-dose group (IMQ+Tan (A) 640 μg/cm^2). After the mice were anesthetized, a 2 cm×3 cm area on the back was selected for hair removal. Modeling began 48 h after hair removal, and all modeling mice were applied with 65 mg (55 mg on the back and 5 mg on each ear) of IMQ cream every morning for 10 d. […]

As for `COc1ccc(-c2cc(=O)c3c(OC)c(OC)c(OC)c(OC)c3o2)cc1` [Tan, tangeretin], the “inhibitory effect on NO compared with positive control Clo” value in the experiment with NO (40 μM, 24 h) is “comparable to that of the positive control”. Besides, the “NO content in the cell supernatant” value with NO (5-40 μM, 24 h, vs LPS group, P<0.001, dose-dependent) is “significantly reduced”. Further, in the experiment with NO (48 h), the “inhibitory effect on the production of NO” value is “strong inhibitory effect”. For the same compound, the “inhibitory effect on IL-23 mRNA compared with positive control Clo” value with IL-23 mRNA (40 μM) is “comparable to that of the positive control Clo”. Also, in the experiment on IL-23 mRNA (5-40 μM, 24 h, vs LPS, P<0.001, dose-dependent), the “relative expression level of IL-23 mRNA” value is on record as “significantly decreased”. In the experiment on PCNA, the “expression level of PCNA in the dorsal skin” value is reported as “significantly reduced”.
